# Test results: US10350239B2, “Pharmaceutical composition for treating cancer comprising trypsinogen and/or chymotrypsinogen and an active agent selected from a selenium compound, a vanilloid compound and a cytoplasmic glycolysis reduction agent” (Propanc Pty Ltd, priority 2009, dated 2019)
# How the values were obtained:
# [1] = Body weight in the AngioChamber study; assay type: in vivo; conditions: female FvB mice; Day 0 to Day 5; 60 mg/kg p.o. daily
# Description: Body weight measurements were recorded for all animals on the first treatment day (Day 0) and then daily until the termination day of the study (Day 5).
# Each animal's body weight was measured immediately prior to dosing. The volume of dosing solution administered to each animal was calculated and adjusted based on individual body weight.
# All statistical calculations were performed using SigmaStat 3.0 (SPSS Australasia, North Sydney, NSW, Australia). A paired t-test was used to determine the significance in body weight change within a treatment group between Day 0 and the termination day of the study. […] Significant induction of the fibrous capsule formation by bFGF is considered to be essential to accept the study results. A One-Way Analysis of Variance (ANOVA) was performed on the capsule weight data at the end of the study. Where significant differences were found, All Pairwise Multiple Comparison and Multiple Comparison versus Control Group Procedures (Holm-Sidak Method) were performed. A p value of less than 0.05 was considered significant.
# [2] = tested on: bFGF-induced angiogenesis; assay: AngioChamber assay (fibrous capsule wet weight); assay type: in vivo; conditions: female FvB mice, once daily Day 0-4, capsule excised Day 5, p<0.05
# Source text: The AngioChamber™ assay utilises the normal physiological process of wound healing, to promote fibrous capsule formation around an implanted chamber (Wood, J. M., Bold, G., Buchdunger, E., Cozens, R., et al. PTK787/ZK 222584, a Novel and Potent Inhibitor of Vascular Endothelial Growth Factor Tyrosine Kinases, Impairs Vascular Endothelial Growth Factor-Induced Responses and Tumour Growth After Oral Administration. Cancer Research, 60 (8):2178-2189 (2000)). The inclusion of Basic Fibroblast Growth Factor (bFGF) in the chamber supports the fibrouse capsule formation while inducing blood vessel development. […] The fibrous capsule around the chamber was removed and the wet weight recorded. […] The vascularised fibrous capsule that had formed around each chamber was carefully removed and the wet weight recorded immediately. Angiogenesis inhibition by Test Articles (%) was calculated using the following formula: % Inhibition=[(A−B)/(A−C)×100] where A is the mean capsule weight from mice with implanted AngioChambers™ containing growth factor and treated with Vehicle Control (Group 2), B is the mean capsule weight from mice with implanted AngioChambers™ containing growth factor and treated with Test Article (Groups 3-5), and C is the mean capsule weight from mice with implanted AngioChambers™ without growth factor and treated with Vehicle Control (Group 1). […]
# HCT-15 cells = assay: Isobolographic combination assay, HCT-15 cells; assay type: cell-based, human
# Description: (§1) The dose-response relations of agents can be used to construct a model giving the expected effect of a combination. The combination of drugs A and B shall be termed (da,db) where da and db are doses of A and B. Effect is treated as a mathematical function, E(da,db). E is sometimes expressed as a fractional effect, then the survival fraction is S: S=1-E. Finally, Da and Db are doses of drugs A and B given separately, which produce an isoeffective response with the combination. Isoboles (iso-effect curves) can be constructed based on the assumption that there is no interaction between the drugs used in combination. The combination (da, db) is represented by a point on a graph that has axes representing doses of the individual drugs. […]
# (§2) This ratio is also called g value and it used to determine the type of interaction. In this case the calculated isobole is concave. […]
# (§3) The initial concentrations for each compound in each cell line were decided based on the calculated IC50 in a way that the IC50 for each drug fell within the concentration in the dilution series. […]
# (§4) Following incubation of cells in Test Article-containing media, 10 μL of CellTiter-Blue® was added to each well and incubated with cells for up to 4 hours. Fluorescence was measured using a Spectramax Gemini XPS Fluorometer. All data were recorded and entered into Microsoft® Excel spreadsheets for interpretation. […]
# A-549 cells = assay: Isobolographic combination assay, A-549 cells; assay type: cell-based, human
# Description: as §1, §2, §3, §4
# MIAPaCa-2 cells = assay: Isobolographic combination assay, MIAPaCa-2 cells; assay type: cell-based, human
# Description: as §1, §2, §3, §4
# [3] = tested on: A-549, HCT-15 and MIAPaCa-2 cells; assay: CellTiter-Blue cell growth assay, three selected cell lines together; assay type: cell-based, human
# Description: (§5) All the cell lines used in these studies were of human origin and were sourced from the American Type Culture Collection (ATCC) (Rockville, Md., USA).
# (§6) The cells were cultured at 37° C. in a humidified cell culture incubator supplied with 95% air/5% CO2.
# (§7) Test Article concentrations were tested in triplicates for each cell line. The CellTiter-Blue® Assay was carried out on all plates 72 hours post addition of Test Articles.
# (§8) Following incubation of cells in Test Article-containing media, 10 μL of CellTiter-Blue® was added to each well and incubated with cells for up to 4 hours. Fluorescence was measured using a Spectramax Gemini XPS Fluorometer. All data were recorded and entered into Microsoft® Excel spreadsheets for interpretation.
# (§9) Data collected from CellTiter-Blue® assays were plotted as dose response curves for IC50 determination, and as isobolograms to assess the type of interaction between Test Article combinations. For IC50 determinations, growth inhibition was calculated and plotted against compound concentration. In these plots, the X-axis (compound concentration) was represented in a logarithmic scale. IC50 concentration was calculated as the half maximal (50%) inhibitory concentration (IC) for each compound using GraphPad Prism version 5.0 for Mac OSX (GraphPad Software, San Diego Calif., USA).
# MIAPaCa-2 = assay: CellTiter-Blue cell growth assay, MIAPaCa-2; assay type: cell-based, human; conditions: 72 hours, Tables 11-13
# Description: as §5, §6, §7, §8, §9
# HCT-15 = assay: CellTiter-Blue cell growth assay, HCT-15; assay type: cell-based, human; conditions: 72 hours, Tables 11-13
# Description: as §5, §6, §7, §8, §9
# A549 = assay: CellTiter-Blue cell growth assay, A549; assay type: cell-based, human; conditions: A-549; 72 hours; Tables 11-13
# Description: as §5, §6, §7, §8, §9
# [4] = background statement; cited from earlier work
compound,measurement,setting,value
CNC(=O)c1cc(Oc2ccc(NC(=O)Nc3ccc(Cl)c(C(F)(F)F)c3)cc2)ccn1 [Sorafenib],body weight loss at termination of the study,[1],5.6%
same,angiogenesis (capsule wet weight) compared to the Induction Control (Vehicle Control with bFGF),"[2]; JBp1 and JBp1-DCM i.p., Sorafenib 60 mg/kg p.o.",significant reduction in angiogenesis
same,angiogenesis (capsule wet weight) compared with JBp1 monotherapy,[2],significantly reduced angiogenesis
Trypsinogen,"type of interaction in combination with chymotrypsinogen (isobolographic, in words)",HCT-15 cells,non-antagonistic interaction
same,"type of interaction in combination with α-amylase (isobolographic, in words)",HCT-15 cells,non-synergistic interaction
same,"type of interaction in combination with chymotrypsinogen (isobolographic, in words)",A-549 cells,wide-range of synergistic interaction
same,"type of interaction in combination with α-amylase (isobolographic, in words)",A-549 cells,narrow-range type
same,"type of interaction in combination with chymotrypsinogen (isobolographic, in words)",MIAPaCa-2 cells,wide-range of synergistic interaction
same,"type of interaction in combination with α-amylase (isobolographic, in words)",MIAPaCa-2 cells,wide-range type
same,"IC50 values, range over all three cell lines",[3],230 to 410 µg/mL
same,IC50 values,MIAPaCa-2,280 µg/mL
same,Maximum Inhibition (%),MIAPaCa-2,82.3%
same,IC50 values,HCT-15,410 µg/mL
same,Maximum Inhibition (%),HCT-15,77.2%
same,IC50 values,A549,230 µg/mL
same,Maximum Inhibition (%),A549,75.7%
C[Se]CC[C@H](N)C(=O)O [selenomethionine],toxic level (organic forms of selenium),[4],about 3500 micrograms daily
